Experimental findings from patent USRE46511E1, “Fused pyrimidine derivatives for inhibition of tyrosine kinase activity” (HANMI SCIENCE CO., LTD., priority 2010, dated 2017) are described below.

One test deals with T1, BTK (Homo sapiens, UniProt Q06187).
T1 construct: purchased Invitrogen
Description: z-lyte kinase assay, BTK. The test is classed as biochemical. The method in brief:
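Each kinase was mixed with peptide substrate, compound (dilution series made at 1–0.0001 μM in 4% DMSO) and ATP added from a 5~300 μM solution, then incubated 60 min at RT. After development reagent and stop solution, fluorescence was read at 400 nm excitation/520 nm emission and IC50 calculated.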

The next test has as its target T2, RLK (Homo sapiens, UniProt P42681).
T2 construct: purchased Invitrogen
T2 sequence (P42681 1-527): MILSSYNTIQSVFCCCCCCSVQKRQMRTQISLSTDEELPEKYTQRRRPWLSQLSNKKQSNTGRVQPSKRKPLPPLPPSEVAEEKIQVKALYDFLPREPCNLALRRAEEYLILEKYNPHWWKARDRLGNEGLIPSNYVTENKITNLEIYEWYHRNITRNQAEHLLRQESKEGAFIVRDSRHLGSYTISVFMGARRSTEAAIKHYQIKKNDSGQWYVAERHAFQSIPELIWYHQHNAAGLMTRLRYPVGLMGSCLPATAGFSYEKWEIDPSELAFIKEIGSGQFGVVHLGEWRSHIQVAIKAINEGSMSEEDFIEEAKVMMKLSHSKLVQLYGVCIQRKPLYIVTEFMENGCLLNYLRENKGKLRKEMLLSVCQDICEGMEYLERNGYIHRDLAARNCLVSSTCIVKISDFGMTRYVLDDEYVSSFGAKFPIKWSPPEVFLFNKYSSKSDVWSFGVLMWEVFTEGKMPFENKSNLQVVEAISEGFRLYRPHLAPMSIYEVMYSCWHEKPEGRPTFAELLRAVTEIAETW
The experiment in a line: z-lyte kinase assay, RLK. The test is classed as biochemical.

For the next test, the system named is A431 (EGFR WT). The experiment in a line: Inhibition test for growth of cancer cell expressing EGFR (SRB), A431.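 Note: cells in 96-well plates exposed to tenfold serial dilutions from 100 µM down to 10^−6 µM, DMSO under 1%, SRB staining read as absorbance at 540 nm.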 The test is classed as cell-based. To be noted: Homo sapiens, A-431; A431 cells, 72 hours, SRB; read-out: GI50 A431 EGFR WT.
Test [1] concerns NCI-H1975 (EGFR L858R/T790M). The experiment in a line: Inhibition test for growth of cancer cell expressing EGFR (MTS), NCI-H1975. It counts as cell-based. To be noted: Homo sapiens; NCI-H1975 cells, 48 hours, MTS; read-out: GI50 NCI-H1975 EGFR L858R/T790M.
Test [2] relates to HCC827 (EGFR DelE746_A750). Description: Inhibition test for growth of cancer cell expressing EGFR (SRB), HCC827.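 Note: cells in 96-well plates exposed to tenfold serial dilutions from 100 µM, fixed with trichloroacetic acid, SRB-stained, absorbance read at 540 nm, DMSO under 1%.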 It counts as cell-based. The note with it: Homo sapiens, HCC827, 72 h, HCC827 cells, 72 hours, SRB; read-out: GI50 HCC827 EGFR DelE746_A750.

T1 sequence (Q06187 whole entry): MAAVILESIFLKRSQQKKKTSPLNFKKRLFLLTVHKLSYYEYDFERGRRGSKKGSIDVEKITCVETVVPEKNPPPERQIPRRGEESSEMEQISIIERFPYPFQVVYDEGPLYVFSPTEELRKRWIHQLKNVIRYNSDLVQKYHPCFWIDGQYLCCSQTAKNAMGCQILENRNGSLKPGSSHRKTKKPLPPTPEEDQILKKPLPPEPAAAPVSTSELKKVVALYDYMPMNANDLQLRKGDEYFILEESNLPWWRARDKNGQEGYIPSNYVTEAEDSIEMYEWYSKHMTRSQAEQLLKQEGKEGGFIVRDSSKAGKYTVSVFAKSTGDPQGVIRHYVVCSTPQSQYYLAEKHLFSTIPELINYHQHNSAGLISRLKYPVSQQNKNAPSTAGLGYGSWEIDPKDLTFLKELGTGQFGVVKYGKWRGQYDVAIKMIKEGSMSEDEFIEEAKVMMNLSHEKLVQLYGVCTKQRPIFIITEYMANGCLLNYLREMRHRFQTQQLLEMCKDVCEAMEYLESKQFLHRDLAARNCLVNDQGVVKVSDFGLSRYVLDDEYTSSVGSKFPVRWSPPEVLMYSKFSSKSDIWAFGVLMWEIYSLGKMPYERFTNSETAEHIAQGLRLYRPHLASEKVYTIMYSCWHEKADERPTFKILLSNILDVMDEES

For `C=CC(=O)Nc1cccc(Oc2nc(Nc3ccc(N4CCN(C)CC4)cc3)nc3ccsc23)c1` [Example 1, N-(3-(2-(4-(4-methylpiperazin-1-yl)phenylamino)thieno[3,2-d]pyrimidine-4-yloxy)phenyl)acrylamide], the IC50 against BTK and at RLK was at most 50 nM in each case. For the same compound, the GI50 in the test on A431 (EGFR WT) was over 1000 nM; in test [1], under 50 nM; in test [2], under 50 nM.
